Test results: patent US12037354B2, “Cyclic pantetheine derivatives and uses thereof” (VectivBio Comet AG, priority 2018, dated 2024)

System: Pkd1-/- mouse inner medullary collecting duct cells (mIMRFNPKD 5E4)
Test: mPKD 3D cyst swelling assay (forskolin-induced), Example 818
Type: cell-based
Details: 50 uM, after 72 hours of forskolin exposure
Method: Cell model and control compounds. mIMCD3 WT cells were obtained via ATCC and modified to create the mIMRFNPKD 5E4 cell line, which has a CRISPR-Cas mediated knockout for Pkd1 as described SLAS Discov. 2017 September; 22(8):974-984. doi: 10.1177/2472555217716056. Cells were cultured in DMEM/F12 (Sigma)+10% FBS (Sigma)+0.5% Pen/Strep (Gibco)+1% GluMax (Gibco). Control compounds used were forskolin (Calbiochem, 344282), Rapamycin (Selleckchem, S1039) and Staurosporin (Selleckchem, S1421).
The 3D mouse cyst swelling assay was performed with Pkd1^−/− mouse inner medullary collecting duct cells (mIMRFNPKD 5E4). The cyst swelling protocol that was used was described previously (SLAS Discov. 2017 September; 22(8):974-984. doi: 10.1177/2472555217716056), with further optimization.
3D culture and compound exposure. mIMRFNPKD 5E4 cells were mixed with Cyst-Gel (OcellO BV). 15 μL of cell-gel mix was pipetted to 384-well plates (Greiner μClear, Greiner Bio-One B.V.) using a CyBio Felix 96/60 robotic liquid dispenser (Analyik Jena AG). […]
Imaging and image analysis. […] Cyst area was determined by calculating for the area in px of each object in every in-focus plain. […] (N represented is number of wells) Fraction of apoptotic nuclei as an indicator of toxicity was calculated as the amount of nuclei without actin signal relative to the total amount of nuclei, both as count-measurements. […]

COC(=O)/C=C/C(=O)SCCNC(=O)CCNC(=O)[C@@H]1OP(=O)(O)OCC1(C)C [Compound 21]
% prevention of forskolin-induced cyst swelling: ≥10%
